Reference: US11845748B2, “Bicyclic pyridine N-oxide derivatives useful as a factor XIa inhibitors” (Janssen Pharmaceutica NV, priority 2021, dated 2023)

biological target: Factor XIa (Homo sapiens, UniProt P03951); assay: Factor XIa inhibition assay utilizing a fluorophore-quencher pair peptide substrate (FLINT); type: biochemical; settings: end point read at 30 min; 30 min preincubation; 5Fam-KLTRAETV-K5Tamra substrate; read-out: FXIa (EP) IC50
From the text: Biological Example 1: Factor XIa Inhibition Assay Utilizing a Fluorophore-Quencher Pair Peptide Substrate
A fluorescence intensity (FLINT) based assay was used to monitor inhibition of Factor XIa. The peptide substrate, 5Fam-KLTRAETV-K5Tamra (purchased from New England Peptide) was chosen based on the […]. Conversion of zymogen […]. The custom peptide used in this assay was based on the Arg146 cleavage site of FXI. The peptide substrate was designed with a fluorophore-quencher pair, where the fluorescence is quenched until FXIa cleaves the 8-mer peptide after the Arg residue. The substrate KM was fit to a substrate inhibition model whereby kcat=0.86 s^−1, KM=12.4 μM, Ki=61.6 μM with an enzymatic efficiency, and kcat/KM=69523 M^−1s^−1.
The Factor XIa FLINT assay was used with the following 5Fam-KLTRAETV-K5Tamra assay buffer: 50 mM Tris, pH 7.5, 100 mM NaCl, 5 mM CaCl2, 0.1 mg/mL BSA, 0.03% CHAPS. Assay buffer was prepared by mixing all ingredients fresh. 5Fam-KLTRAETV-K5Tamra peptide substrate was first prepared at 10 mM in 100% DMSO, then diluted to 3 mM in 100% DMSO. Assay buffer was then added directly to the 3 mM stock of substrate to prepare the 30 μM 2× working concentration (15 μM final concentration). The 2× Factor XIa stock solution was prepared by diluting 6.562 μM stock in 1× assay buffer for a 200 pM working stock solution (100 pM final concentration).
Test compound(s) were run in an 11-point, 3-fold serial dilution with a final top compound concentration of 100 nM. Final DMSO in assay was 2%. FXIa was preincubated with compound for 30-minutes and then substrate was added to initiate the reaction. The assay was run with either end point (EP) reads at 30 min or kinetic (KIN) reads at 5 min intervals over 30 minutes. The time course was linear using 100 μM FXIa greater than 30 minutes. More specifically, the assay was run as follows: • 100 nL of 0.01 mM test compound was dispensed into black 384-well non-binding Greiner BioOne 784900 plate for 0.1 μM final concentration; • 5 μL of 1× assay buffer was dispensed to column 24 (low control) and 5 μL 2× Factor XIa solution was dispensed to columns 1-23 (column 23 high control); • the plate was centrifuged with a “cover” plate at 500 rpm for 1 min the plate was pre-incubated for 30 minutes at room temperature with plate covered; • 5 μL of 2× 5Fam-KLTRAETV-K5Tamra peptide substrate was dispensed into the entire plate, columns 1-24; • the plate was centrifuged with a “cover” plate at 500 rpm for 1 min; • the plate was read monitoring fluorescence intensity on the BMG PHERAStar at room temperature, using fluorescence module 485 nm/520 nm.
Percent inhibition (IC50) curves were generated per compound tested, and data was analyzed using a 4-parameter logistic fit using GeneData Screener. The relative fluorescence unit (RFU) values were normalized to percent inhibition using the following equation: % inhibition=((HC−LC)−(compound−LC)/(HC−LC))*100 where LC—low control=mean signal of no Factor XIa or 100% inhibition of Factor XIa; HC—high control=mean signal of Factor XIa+5Fam-KLTRAETV-K5Tamra peptide substrate with DMSO only.
An 11-point dose response curve for the test compound(s) was generated using GENDATA to determine IC50 value based on the following equation: Y=Bottom+(Top−Bottom)/(1+10^((log IC50−X)*HillSlope))
where Y is the % inhibition in the presence of X inhibitor concentration, Top=high control=mean signal of Factor XIa+5Fam-KLTRAETV-K5Tamra peptide substrate with DMSO only; Bottom=low control−mean signal of no Factor XIa or 100% inhibition of Factor XIa; HillSlope—Hill coefficient; and IC50=concentration of compound with 50% inhibition in relation to top/high control. […]

Factor XIa, sequence (P03951 388-625 limits assumed): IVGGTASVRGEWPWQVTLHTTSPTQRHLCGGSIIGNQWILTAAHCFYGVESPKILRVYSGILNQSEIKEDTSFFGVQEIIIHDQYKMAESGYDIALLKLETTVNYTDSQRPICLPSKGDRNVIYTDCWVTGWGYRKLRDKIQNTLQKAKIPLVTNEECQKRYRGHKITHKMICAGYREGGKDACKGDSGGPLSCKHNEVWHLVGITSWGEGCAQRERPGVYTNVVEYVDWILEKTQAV
Factor XIa, sequence (P03951 19-387 partner limits assumed): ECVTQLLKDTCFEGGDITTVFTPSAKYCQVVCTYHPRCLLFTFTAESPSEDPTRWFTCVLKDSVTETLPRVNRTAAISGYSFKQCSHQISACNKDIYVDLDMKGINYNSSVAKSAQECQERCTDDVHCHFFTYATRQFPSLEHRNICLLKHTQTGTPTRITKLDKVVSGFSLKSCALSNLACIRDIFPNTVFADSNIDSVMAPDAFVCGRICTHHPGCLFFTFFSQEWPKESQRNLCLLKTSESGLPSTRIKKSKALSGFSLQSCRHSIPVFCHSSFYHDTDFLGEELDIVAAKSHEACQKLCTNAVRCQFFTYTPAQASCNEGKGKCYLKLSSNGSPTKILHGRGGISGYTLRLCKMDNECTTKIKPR

**Q.** Which IC50 does the source give for COC(=O)Nc1ccc(-c2ccn(C3CCc4cc(-c5cc(Cl)ccc5-n5cnnn5)c[n+]([O-])c43)n2)cc1 (racemic) [ID No. 5, 3-(5-Chloro-2-(1H-tetrazol-1-yl)phenyl)-7-(3-(4-((methoxycarbonyl)amino)phenyl)-1H-pyrazol-1-yl)-6,7-dihydro-5H-cyclopenta[b]pyridine 1-oxide] here?
**A.** 109 nM

**Q.** O=C(O)c1ccc2nn(C3CCc4cc(-c5cc(Cl)ccc5-n5cnnn5)c[n+]([O-])c43)cc2c1 (centres unmarked) [ID No. 1, 7-(5-Carboxy-2H-indazol-2-yl)-3-(5-chloro-2-(1H-tetrazol-1-yl)phenyl)-6,7-dihydro-5H-cyclopenta[b]pyridine 1-oxide] was tested. Which IC50 did it give?
**A.** 2850 nM

**Q.** Which IC50 does the source give for COC(=O)Nc1ccc(-c2cn(C3CCc4cc(-c5c(-n6cnnn6)ccc(Cl)c5F)c[n+]([O-])c43)nc2C)cc1 (single isomer, unassigned) [ID No. 13, (R*)3-(3-Chloro-2-fluoro-6-(1H-tetrazol-1-yl)phenyl)-7-(4-(4-((methoxycarbonyl)amino)phenyl)-3-methyl-1H-pyrazol-1-yl)-6,7-dihydro-5H-cyclopenta[b]pyridine 1-oxide] here?
**A.** 837 nM

**Q.** Which IC50 does the source give for Nc1ccc(-c2cnn(C3CCc4cc(-c5cc(Cl)ccc5-n5cnnn5)c[n+]([O-])c43)c2)cc1 (racemic) [ID No. 12, 7-(4-(4-Aminophenyl)-1H-pyrazol-1-yl)-3-(5-chloro-2-(1H-tetrazol-1-yl)phenyl)-6,7-dihydro-5H-cyclopenta[b]pyridine 1-oxide] here?
**A.** 220 nM

**Q.** With Nc1ccc(-c2cnn(C3CCc4cc(-c5cc(Cl)ccc5-n5cnnn5)c[n+]([O-])c43)c2)c(F)n1 (racemic) [ID No. 10, 7-(4-(6-Amino-2-fluoropyridin-3-yl)-1H-pyrazol-1-yl)-3-(5-chloro-2-(1H-tetrazol-1-yl)phenyl)-6,7-dihydro-5H-cyclopenta[b]pyridine 1-oxide] as the compound, how does the IC50 read?
**A.** 27 nM

**Q.** COC(=O)Nc1ccc(-c2cnn([C@@H]3CCc4cc(-c5c(-n6cnnn6)ccc(Cl)c5F)c[n+]([O-])c43)c2)cc1 [ID No. 9, (R)-3-(3-chloro-2-fluoro-6-(1H-tetrazol-1-yl)phenyl)-7-(4-(4-((methoxycarbonyl)amino)phenyl)-1H-pyrazol-1-yl)-6,7-dihydro-5H-cyclopenta[b]pyridine 1-oxide] was tested. Which IC50 did it give?
**A.** 3 nM

**Q.** Which IC50 does the source give for COC(=O)Nc1ccc(-c2cn(C3CCc4cc(-c5c(-n6cnnn6)ccc(Cl)c5F)c[n+]([O-])c43)nc2C)cc1 (single isomer, unassigned) [ID No. 14, (S*)-3-(3-Chloro-2-fluoro-6-(1H-tetrazol-1-yl)phenyl)-7-(4-(4-((methoxycarbonyl)amino)phenyl)-3-methyl-1H-pyrazol-1-yl)-6,7-dihydro-5H-cyclopenta[b]pyridine 1-oxide] here?
**A.** 16 nM

**Q.** Which IC50 does the source give for COC(=O)Nc1ccc(-c2cnn(C3CCc4cc(-c5cc(Cl)ccc5-n5cnnn5)c[n+]([O-])c43)c2)cc1 (racemic) [ID No. 7, 3-(5-Chloro-2-(1H-tetrazol-1-yl)phenyl)-7-(4-(4-((methoxycarbonyl)amino)phenyl)-1H-pyrazol-1-yl)-6,7-dihydro-5H-cyclopenta[b]pyridine 1-oxide] here?
**A.** 9 nM

**Q.** O=C(O)c1cccc(-c2cnn(C3CCc4cc(-c5cc(Cl)ccc5-n5cnnn5)c[n+]([O-])c43)c2)c1 (racemic) [ID No. 6, 7-(4-(3-Carboxyphenyl)-1H-pyrazol-1-yl)-3-(5-chloro-2-(1H-tetrazol-1-yl)phenyl)-6,7-dihydro-5H-cyclopenta[b]pyridine 1-oxide] was tested. Which IC50 did it give?
**A.** 79 nM

**Q.** With COC(=O)Nc1ccc(-c2cnn(C3CCc4cc(-c5c(-n6cnnn6)ccc(Cl)c5F)c[n+]([O-])c43)c2)cc1 (single isomer, unassigned) [ID No. 8, (R*)3-(3-Chloro-2-fluoro-6-(1H-tetrazol-1-yl)phenyl)-7-(4-(4-((methoxycarbonyl)amino)phenyl)-1H-pyrazol-1-yl)-6,7-dihydro-5H-cyclopenta[b]pyridine 1-oxide] as the compound, how does the IC50 read?
**A.** 3260 nM

**Q.** For Nc1ccc(-c2cnn(C3CCc4cc(-c5c(-n6cnnn6)ccc(Cl)c5F)c[n+]([O-])c43)c2)c(F)n1 (racemic) [ID No. 11, 7-(4-(6-Amino-2-fluoropyridin-3-yl)-1H-pyrazol-1-yl)-3-(3-chloro-2-fluoro-6-(1H-tetrazol-1-yl)phenyl)-6,7-dihydro-5H-cyclopenta[b]pyridine 1-oxide], which IC50 is on record?
**A.** 11 nM

**Q.** COC(=O)Nc1ccc(-c2cnn(C3CCc4cc(-c5cc(Cl)ccc5OCC(F)(F)F)c[n+]([O-])c43)c2)cc1 (racemic) [ID No. 15, 3-(5-Chloro-2-(2,2,2-trifluoroethoxy)phenyl)-7-(4-(4-((methoxycarbonyl)amino)phenyl)-1H-pyrazol-1-yl)-6,7-dihydro-5H-cyclopenta[b]pyridine 1-oxide] was tested. Which IC50 did it give?
**A.** 1690 nM

**Q.** For O=C(O)c1cccc(-c2ccn(C3CCc4cc(-c5cc(Cl)ccc5-n5cnnn5)c[n+]([O-])c43)n2)c1 (racemic) [ID No. 4, 7-(3-(3-Carboxyphenyl)-1H-pyrazol-1-yl)-3-(5-chloro-2-(1H-tetrazol-1-yl)phenyl)-6,7-dihydro-5H-cyclopenta[b]pyridine 1-oxide], which IC50 is on record?
**A.** 1010 nM

**Q.** With O=C(O)c1ccc(-c2ccn(C3CCc4cc(-c5cc(Cl)ccc5-n5cnnn5)c[n+]([O-])c43)n2)cc1 (racemic) [ID No. 3, 7-(3-(4-Carboxyphenyl)-1H-pyrazol-1-yl)-3-(5-chloro-2-(1H-tetrazol-1-yl)phenyl)-6,7-dihydro-5H-cyclopenta[b]pyridine 1-oxide] as the compound, how does the IC50 read?
**A.** 320 nM
